Results taken from paper PMC10235067, “Increased renal elimination of endogenous and synthetic pyrimidine nucleosides in concentrative nucleoside transporter 1 deficient mice” (Nature Communications, 2023).

Tested on: CNT1
Description: Linearity was established for analytes over the concentration ranges observed and the lower limit of quantification of the LC–MS/MS assay was approximately 0.1 ng/ml for each analyte (Fig. S2).
Standard solutions of all nucleotide targets were serially diluted to generate calibration solutions at concentrations of 0.0, 0.0001, 0.001, 0.01, 0.1, 1.0, and 10 µg/ml. Urine samples were prepared by adding 20 µL of urine solution to 80 µL of 50:50 H2O:MeOH containing internal standard, vortexing and centrifuging at 20,000 × g; then, 50 µL aliquots were placed into glass vials, dried in a SpeedVac and reconstituted in 5% MeOH with 0.1% formic acid for injection.
Samples were quantified using a heated electrospray ionization source (HESI) on a Thermo Scientific TQS Quantiva triple quadrupole mass spectrometer, and separation was achieved using a Thermo Scientific Ultimate 3000 HPLC equipped with an Agilent 120 SB-C18 reversed-phase column (2 × 100 mm, 2.7 µm particle size) maintained at 40 °C. […] For all experiments, the capillary voltage was set to 4.5 kV with a capillary temperature of 350 °C, a vaporizer temperature of 100 °C, a sheath gas flow of 12, an auxiliary gas flow of 13, and a 1.6 sweep gas. For selected reaction monitoring (SRM) mode, Q1 and Q3 were set to 0.7 full width at half maximum (FWHM) resolution, a cycle time of 0.8 s, and a CID gas pressure of 1.5 mTorr.

| SMILES | concentration in urine, Slc28a1+/+ vs Slc28a1-/- (12 h starvation) | fold increase of content in urine of Slc28a1-/- mice (Slc28a1-/- vs Slc28a1+/+, urine collected over 12 h starvation, 8-week-old mice, n = 6) |
| --- | --- | --- |
| Nc1nc2c(ncn2[C@@H]2O[C@H](CO)[C@@H](O)[C@H]2O)c(=O)[nH]1 [Guanosine] | not significantly different | – |
| Cc1cn([C@H]2C[C@H](O)[C@@H](CO)O2)c(=O)[nH]c1=O [Thymidine] | – | 7.5 fold |
